What was measured:
[1] = cited from earlier work
[2] = tested on: patients with primary hypertension and inadequate BP control; experiment: Precision dosing trial of amlodipine with home blood pressure and e-diary side effects (Example 1)

SMILES: CCOC(=O)C1=C(COCCN)NC(C)=C(C(=O)OC)C1c1ccccc1Cl (stereo not shown) [amlodipine]
- dose linearity of pharmacokinetics ([1]; FIG. 1, Williams et al 1988): linear across a wide range of doses
- increase in total exposure ([1]; elderly): up to 60%
- variance in average amlodipine blood levels between subjects ([1]; steady-state, same dose): up to 30%
- toxic related side effects leading to treatment discontinuation ([2]; during the trial to date): no toxic related side effects leading to treatment discontinuation were observed
- end mean DBP ([2]; end of study, baseline mean DBP 88 mmHg, 109 patients begun, 39 completed, linear mixed model estimate): 81 mmHg
- end mean SBP ([2]; end of study, baseline mean SBP 146 mmHg, 109 patients begun, 39 completed, linear mixed model estimate): 133 mmHg
- side effects (oedema) by VAS score ([2]; single patient, final dose of 10 mg, VAS 0-100 scale (1-25 mild, 26-50 moderate)): mild to moderate
